Measured values taken from article PMC9410094 (Marine Drugs, 2022).
Values after ≈ are worked out from the molar mass of the structure shown. Positions of bridges follow the written chain, without caps; N, C: chain ends. Residues, ends and D or L forms follow the SMILES beside them.

Legend:
Gram-negative bacteria = experiment: Geometric mean of MICs, Gram-negative panel; type: cell-based; conditions: geometric mean (GM) of MICs against the 14 Gram-negative strains of Figure 2
Experimental: (§1) The antimicrobial activity of the peptides was determined via the method of two-fold serial dilutions in sterile 96-well flat-bottom polystyrene microplates (Eppendorf #0030730011) in Mueller–Hinton broth (MHB, Sigma, Kawasaki, Kanagawa, Japan) supplemented with 0.9% NaCl. Bacterial cultures were grown in MHB at 37 °C until the culture reached an optical density OD600 of 1.0 and diluted with the broth so that to reach a final cell concentration of 10^6 CFU/mL. Then 50 μL of the test culture were added to 50 μL of aqueous solutions of the peptides, previously diluted in 0.1% sterilized bovine serum albumin (BSA) to reduce non-specific binding of the peptides to the surface of the plates. Next, the plate was incubated for 24 h at 37 °C and 950 rpm on the plate thermoshaker (Biosan). The values of the minimum inhibitory concentrations (MIC) were determined as the minimum concentration of the peptide, at which there is no culture growth. The results were expressed as the median values of three independent experiments performed in triplicate.

E. coli ATCC 25922 [1] = type: cell-based; conditions: MHB + 0.9% NaCl, 0.1% BSA, 24 h, 37 °C; median of three independent experiments
E. coli ML-35p = test system: E. coli ML-35p
Experimental: Initially, antimicrobial activity of abarenicin and UuBRI-21 was evaluated against the reference strain of E. coli (ML-35p) under various conditions (Table 1). Minimal inhibitory concentrations (MICs) were determined via two-fold serial dilutions in 96-well polystyrene plates. Serial dilutions were made in 0.1% bovine serum albumin (BSA) to minimize the absorption of peptides on the surface of plate wells. Mueller–Hinton broth (MHB) supplemented with 0.9% NaCl was used as the standardized medium.
as §1, with “Bacterial” for “The antimicrobial activity of the peptides was determined via the method of two-fold serial dilutions in sterile 96-well flat-bottom polystyrene microplates (Eppendorf #0030730011) in Mueller–Hinton broth (MHB, Sigma, Kawasaki, Kanagawa, Japan) supplemented with 0.9% NaCl. Bacterial”

Gram-positive bacteria = type: cell-based; conditions: 24 h
Experimental: as §1

in vitro = conditions: male, human, 25% fresh human serum, pH 7.4
Experimental: After incubation, serum proteins were selectively precipitated from the mixture by adding 10% TFA in the presence of 3 M urea. […] Two independent experiments in duplicate were performed for each peptide.

human red blood cells = type: cell-based
Experimental: Figure 4 (A) Hemolytic effect on human red blood cells after 2 h incubation (hemoglobin release assay). (B) Cytotoxicity toward transformed human embryonic kidney cells after 20 h incubation (MTT-assay). The positive control used was 0.1% Triton X-100 and sterile PBS as a negative control. Melittin was used as an additional positive control. The data are presented as the mean ± SD of three independent experiments.
The hemolytic activity of compounds was performed using human red blood cells (hRBS) of healthy donor. Fresh blood was centrifuged to separate the erythrocyte fraction for 15 min at 500 g and washed three times with cold phosphate-buffered saline (PBS) (pH 7.4), after which an 8% (v/v) suspension of erythrocytes in PBS was prepared. Then, 50 µL of erythrocyte suspension was added to the test peptides, previously were dissolved in 50 µL of 0.1% BSA. The plate was incubated for 1.5 h at 37 °C and 950 rpm on the plate thermoshaker. After incubation, the plates were centrifuged for 15 min at 1000 g to settle intact erythrocytes. Next, aliquots of the supernatant were transferred to another plate to measure the amount of hemoglobin release by the absorbance of the solution at 405 nm. As “zero lysis” we used the supernatant obtained after centrifugation of erythrocytes incubated in a PBS solution without the addition of a peptide. As “100% lysis”, we used the supernatant obtained after centrifugation of erythrocytes incubated in a 0.1% Triton X-100, causing their complete lysis. The assays were conducted three times. The quantitative data were presented as an average means with standard deviations. Hemolysis(%)=OD405(compound)−OD405(zerolysis)/OD405(100%lysis)−OD405(zerolysis)×100%

[2] = RP-HPLC retention time as measure of hydrophobicity; type: physicochemical; conditions: chromatographic, semipreparative RP-HPLC, C18 column, linear gradient 5 to 80% (v/v) acetonitrile in water with 0.1% TFA within 50 minutes; used as measure of hydrophobicity
Experimental: Table S1. Characteristics of the recombinant AMPs.
1 Mean Kyte–Doolittle hydrophobicity index (GRAVY) was calculated using the Expasy ProtParam tool. The maximum and minimum values of this index are +4.5 and -4.5 for poly-Ile and poly-Arg sequences, respectively. 2 Retention times were measured using semipreparative reversed-phase high-performance liquid chromatography (RP - HPLC) on a C18 column with a linear gradient from 5 to 80% ( v/v) acetonitrile in water containing 0.1% trifluoroacetic […]
acid (TFA) within 50 minutes. […]

E. coli ATCC 25922 [3] = experiment: Mice septicemia model, survival; conditions: BALB/c mice, n = 8, E. coli ATCC 25922 i.p. with 2.5% mucin; peptide i.p. 10 mg/kg at 1 and 4 h post-infection; 7 days
Experimental: Ciprofloxacin (the single dose of 10 mg/kg) and saline were used as the positive and negative controls, respectively. […] Mice were controlled once daily for their health status during 7 post-infection days.
Then, we examined an efficacy of AMPs in the mice septicemia model using 8 animals in a group (Figure 10B).
Experiments were performed with female 8–10-week-old BALB/c mice (22–24 g, “Andreevka” laboratory animal nursery FMBA, Russia). […] All animal experiments were performed at the State Research Center for Applied Microbiology and Biotechnology (SRCAMB) in Obolensk, Russia. The animals were housed in groups of 5 in polycarbonate cages. Food and water were provided ad libitum.
A total of 4 groups with 8 animals were used. The first group received ciprofloxacin (Sigma, Kawasaki, Kanagawa, Japan) administered i.p. once (1 h post-infection) at a dose of 10 mg/kg. The second group received saline (as a vehicle control) administered i.p. once (1 h post-infection). […] Survival was monitored for 7 days. After that survived animals were euthanized by CO2 asphyxiation.

[4] = test system: P. aeruginosa PAO1 mature biofilms; experiment: Effect on mature biofilms, viability by MTT; conditions: P. aeruginosa PAO1 pre-formed biofilm, 16 µM, 2-h exposure
Experimental: Biofilm viability was measured by tetrazolium salt reduction (right panel). Values are presented as means ± the standard deviation (SD) of three independent experiments.
The effect of peptides on pre-formed biofilms was evaluated as follows. Biofilms were grown on a 96-well plate at 32 °C for 24 h and stirred at 120 rpm to ensure biofilm formation primarily on the wall of the wells. […] Bacterial survival in the biofilms after 2-h exposure was evaluated via a MTT assay after incubation with a tested peptide. Then, wells were rinsed with sterile water, treated with an MTT solution (Sigma, Kawasaki, Kanagawa, Japan) in PBS, and incubated for 4 h at 37 °C. Next, the medium was removed. The resulting formazan crystals were dissolved in a mixture of EtOH and DMSO (1:1) for 10 min. The optical density of the solution was measured at 570 nm. Bacterial survival was calculated as percent relative to samples without antimicrobial agent. All data were obtained from at least three independent experiments in 3 repetitions.

E. coli 3421/E19 = experiment: Neutropenic mice peritonitis model; type: in vivo, BALB/c mice; conditions: for Bacterial burden in mice blood (in words) / Reduction of the CFU level in peritoneal fluid (PF): neutropenic BALB/c mice, CFU 5 h after treatment; for Bacterial burden in mice blood (in words): n = 5, i.p. infection, single i.v. dose 1 h post-infection (AMPs 10 mg/kg, polymyxin B 5 mg/kg); for Reduction of the CFU level in peritoneal fluid (PF): n = 5, single i.v. dose (AMPs 10 mg/kg, polymyxin B 5 mg/kg)
Experimental: Immune-deficient mice were inoculated intraperitoneally (i.p.) with bacterial suspension. Antimicrobial agent was administered 1 h post-infection, and colony counts in blood and peritoneal fluid (PF) were determined 5 h later.
(A) The mice peritonitis model. […] Horizontal bars indicate means ± SD.
Food and water were provided ad libitum.
CFU counts were determined from blood and peritoneal fluid (PF) 5 h after treatment. The mice were euthanized by CO2 asphyxiation and blood was collected by axillary cut down. A total of 2 mL sterile saline was injected i.p. and the abdomen gently massaged before it was opened, fluid sampled with a pipette, serially diluted and placed on Endo agar supplemented with 20 µg/mL of tetracycline for CFU identification.

P. aeruginosa PAO1 = experiment: Inhibition of biofilm formation, crystal violet; type: cell-based; conditions: 24 h, LB, 32 °C
Description: Such an adaptive and survival mechanism is mediated by biofilms, which constitutes the community of sessile bacteria embedded within the self-produced extracellular polymeric substance (EPS) that defends them from chemical, biological, and physical stress; it also […] foreign invaders. Besides the fact that EPS decreases concentration of antibiotics, bacteria inside biofilm are characterized by a reduced rate of cell divisions, an increased expression of stress response genes, an occurrence of persistent cells, and exchange of resistance genes leading to a broader spread of tolerant biofilm-growing bacteria. For the treatment of biofilm-associated infections a high concentration of antibiotics is required that also increases toxicity toward human cells. Antimicrobial peptides are able to act on certain stages of biofilm formation and various molecular targets and are considered as promising candidates for the development of new antibiofilm agents. […] Bacterial biomass amount was evaluated using the standard crystal violet assay over a 24 h incubation period with each drug. […]
Masses of biofilms were evaluated by dying with 0.1% CV. […]
The ability of peptides to influence the formation of biofilms was evaluated by the method of two-fold serial dilutions in a liquid nutrient medium. […] Further, the extracts were transferred to a new plate and absorption was measured at 570 nm. […]

[5] = 25% human serum in PBS (pH 7.4) from healthy donor; conditions: 37 °C, up to 24 h
E. coli MDR Cl 1057 = experiment: Resistance induction by serial passages; type: cell-based; conditions: E. coli MDR Cl 1057, 0.9% NaCl-enriched Mueller–Hinton medium
Experimental: One of them involves a series passage with suspension of a test strain and liquid medium containing an antibacterial agent at concentrations near the MIC, which progressively increases during the experiment until resistant mutants are enriched. Bacteria that grew at the highest concentration of drug are used in the final step of the test that determines the final MIC value [18].
The ability of peptides to induce bacterial resistance was assessed by the method of two-fold serial dilutions; this test was repeated every day. […] Next, on the second day, 2 μL of the bacterial suspension was taken from the well containing the sub-inhibitory concentration of the drug as close as possible to the MIC and diluted with 1 mL of the same media.

In the case of CC[C@H](C)[C@@H]1NC(=O)[C@H](CCCNC(=N)N)NC(=O)[C@H](C(C)C)NC(=O)CNC(=O)[C@H](CC(N)=O)NC(=O)[C@H](CCCNC(=N)N)NC(=O)[C@H](CC(C)C)NC(=O)[C@H](Cc2ccc(O)cc2)NC(=O)[C@@H]2CSSC[C@H](NC1=O)C(=O)N[C@@H](Cc1ccc(O)cc1)C(=O)N[C@@H](CCCNC(=N)N)C(=O)N[C@@H](CCCNC(=N)N)C(=O)N[C@H](C(=O)N[C@@H](CC(N)=O)C(=O)O)CSSC[C@H](NC(=O)[C@H](Cc1ccc(O)cc1)NC(=O)CN)C(=O)N[C@@H](Cc1ccccc1)C(=O)N[C@@H]([C@@H](C)O)C(=O)N[C@@H](C)C(=O)N2 [Abarenicin] (H-GYCFTACYLRNGVRICYRRCN-OH; disulfide 3-20, 7-16), the “Minimum inhibitory concentration (MIC): Gram-negative Geometric mean” value (Gram-negative bacteria) was 0.45 µM (≈ 1.14 µg/mL), the “Minimum inhibitory concentration (MIC): E. coli ATCC 25922” value (E. coli ATCC 25922 [1]) was 0.25 µM and the “Fold reduction of antibacterial activity in the presence of serum” value (E. coli ML-35p; MHB + 0.9% NaCl with 25% FBS versus without) was 4 fold. The “Minimum Inhibitory Concentration, MHB + 0.9% NaCl + 25% FBS” value (E. coli ML-35p; Table 1, medium with 25% fetal bovine serum) was 1 µM, the “Minimum Inhibitory Concentration, MHB + 0.9% NaCl” value (E. coli ML-35p; Table 1, without FBS, dilutions in 0.1% BSA) was 0.25 µM and the “Minimum inhibitory concentration (MIC): Gram-positive Geometric mean” value (Gram-positive bacteria) was 2.52 µM (≈ 6.37 µg/mL). The remaining at 2 h, 0.12 mg/mL (in vitro) was > 90%, the “Hemolytic activity (in words)” value (human red blood cells) was “moderate hemolytic activity” and the “RP-HPLC Retention Time” value [2] was 25.77 min.

For CC[C@H](C)[C@@H]1NC(=O)[C@H](CCCNC(=N)N)NC(=O)[C@H](C(C)C)NC(=O)CNC(=O)[C@H](CC(N)=O)NC(=O)[C@H](CCCNC(=N)N)NC(=O)[C@H](CCCNC(=N)N)NC(=O)[C@H](C)NC(=O)[C@@H]2CSSC[C@H](NC1=O)C(=O)N[C@@H](Cc1ccc(O)cc1)C(=O)N[C@@H](CCCNC(=N)N)C(=O)N[C@@H](CCCNC(=N)N)C(=O)N[C@H](C(=O)N[C@@H](CC(N)=O)C(=O)O)CSSC[C@H](NC(=O)[C@H](Cc1ccc(O)cc1)NC(=O)CN)C(=O)N[C@@H](Cc1ccccc1)C(=O)N[C@@H]([C@@H](C)O)C(=O)N[C@@H](C)C(=O)N2 [Ap9], the “Minimum inhibitory concentration (MIC): Gram-negative Geometric mean” value (Gram-negative bacteria) was 0.26 µM (≈ 0.645 µg/mL), the “Therapeutic efficacy (survival) after one-week experiment” value (E. coli ATCC 25922 [3]) was 100% and the “Residual viability of bacteria in mature biofilm” value [4] was “about 20%”. For the same molecule, the “Minimum inhibitory concentration (MIC): Gram-positive Geometric mean” value (Gram-positive bacteria) was 3.17 µM (≈ 7.86 µg/mL), the “Bacterial burden in mice blood (in words)” value (E. coli 3421/E19) was “complete reduction” and the “Reduction of the CFU level in peritoneal fluid (PF)” value (E. coli 3421/E19) was ~ 5 log. The “Efficacy in the neutropenic peritonitis model (in words)” value (E. coli 3421/E19; single i.v. dose of 10 mg/kg, E. coli 3421/E19) was “effective”, the “Inhibition of biofilm formation (in words)” value (P. aeruginosa PAO1) was “more effective in biofilm prevention at sub-inhibitory concentration” and the “Hemolytic activity (in words)” value (human red blood cells) was “insignificant toxicity toward human erythrocytes”. The “RP-HPLC Retention Time” value [2] was 25.37 min.

In the case of GYCFTACYLRNGVRICYRRCN, the cleaved bond [5] was “glycine-Y, major”.

In the case of polymyxin B [reference compound], the “Residual viability of bacteria in mature biofilm” value [4] was “about 20%”, the “Bacterial burden in mice blood (in words)” value (E. coli 3421/E19) was “complete reduction” and the “Reduction of the CFU level in peritoneal fluid (PF)” value (E. coli 3421/E19) was ~ 5 log. The “Initial MIC in resistance induction experiment” value (E. coli MDR Cl 1057) was 0.125 µM and the “Inhibition of biofilm formation (in words)” value (P. aeruginosa PAO1) was “modest inhibition of biofilm”.
